Cell proliferation-inhibiting effect data for three compounds are collected here from patent US8119812B2, “Thiazolidinone derivative” (SBI Biotech Co., Ltd., priority 2009, dated 2012).

In this assay the test system is HeLa cells. As to the kind of experiment: Cell proliferation inhibitory activity, WST-1 assay, HeLa cells. It is filed as cell-based. As to conditions: FIG. 1; incubation for 24 hours after adding compound; absorbance at 450 nm (WST-1); cell line not given. How it is done: Cell proliferation inhibitory activity of the thiazolidinone derivatives shown in Tables 2 to 21 and 26 to 29 were evaluated according to the following procedure.
HeLa cells (ATCC) were cultured in a medium (DMEM-10% FCS-Penicillin/Streptomycin) on 10-cm dishes. The medium was removed from the HeLa cells (ATCC) in healthy growth conditions (70 to 90% confluent), the cells were detached by treating with 2 ml of trypsin (TrypL Express, GIBCO), and then the cells were collected using the same medium.
After the collected cells were suspended in the medium at a concentration of 5×10^4 cells/mL, 100 μL, each of the cells were seeded on 96-well plates (FALCON, 3530) at a concentration of 5×10^3 […]. Each medium alone without cells was added to the blank wells. The wells were incubated in a 5% CO2 incubator. The culture media used are as follows.
HeLa cells: DMEM-10% FCS-Penicillin/Streptomycin,
The following day after the start of culturing, the medium was replaced with that including candidate compounds. At the beginning, the candidate compounds were diluted with DMSO, and a 10-step dilution series from 0 μM to 12.5 mM was prepared. 249 μL of the medium was added to 1.5-ml tubes. Then, 1 μL of the compound diluted with DMSO was added thereto at each concentration, and this was mixed. By this procedure, the ratio of DMSO included becomes 1/250. More specifically, in case of the following dilution series, the final concentrations of candidate compounds are as follows.
After removing the medium in wells, each candidate compound was added in duplicate to each well at a volume of 100 μL per one concentration. […]
On the next day or the day after the next day (24 to 48 hours later), 10 μL of Cell Proliferation Reagent WST-1 (ROCHE) was added to each well. […] The formed pigment can be assayed by measuring the absorbance at 450 nm. After incubation for an hour in a CO2 incubator, the absorbance at 450 nm was measured using a microplate reader. The values were evaluated by subtracting the blank value, and plotted by curve-fitting using the Prism software, and IC50 was calculated.
On to `Cc1cc(OCCN(C)C)ccc1/N=C1/NC(=O)/C(=C/c2cnc(NC(=O)C3CC3)s2)S1` [Compound 119, (2Z,5Z)-N-(5{[2-({4-[2-(dimethylamino)ethoxy]-2-methylphenyl}azamethylene)-4-oxo(1,3-thiazolidin-5-ylidene)]methyl}(1,3-thiazol-2-yl))cyclopropylcarboxamide], for which the cell proliferation-inhibiting effect entry is “strong inhibitory effect”.

For the compound `COC(=O)N(C)CCOc1ccc(/N=C2/NC(=O)/C(=C/c3cnc(NC(=O)C4CC4)s3)S2)c(C)c1` [Compound 137, (2Z,5Z)-N-(2-{4-[(5-{[2-(cyclopropylcarbonylamino) (1,3-thiazol-5-yl)]methylene}-4-oxo(1,3-thiazolidin-2-ylidene))azamethyl]-3-methylphenoxy}ethyl) methoxy-N-methylcarboxamide], the cell proliferation-inhibiting effect entry is reported as “strong inhibitory effect”.

As to `Cc1cc(OC2CCN(C)C2)ccc1/N=C1/NC(=O)/C(=C/c2cnc(NC(=O)C3CC3)s2)S1` (stereo not drawn) [Compound 139, (2Z,5Z)-cyclopropyl-N-{5-[(2-{[2-methyl-4-(1-methylpyrrolidin-3-yloxy)phenyl]azamethylene}-4-oxo(1,3-thiazolidin-5-ylidene))methyl] (1,3-thiazol-2-yl)}carboxamide], the cell proliferation-inhibiting effect entry is given as “strong inhibitory effect”.
